Compound `COc1ccc2ncc(C3=NC(C)(C)C(C)(C)c4c(F)cccc43)cn12` [E 1] had a melting point of 120 to 122 °C.
To `CC1(C)N=C(c2cnc3cccn3c2)c2cccc(F)c2C1(C)C` [E 2, 5-fluoro-3,3,4,4-tetramethyl-1-pyrrolo[1,2-a]pyrimidin-3-yl-isoquinoline] belongs 130 to 134 °C.
Turning to `CC1(C)N=C(c2cnc3ccc(Br)n3c2)c2cccc(F)c2C1(C)C` [E 4], the melting point lay within 166 to 167 °C.
Under `CC1(C)Cc2c(F)cccc2C(c2cnc3ccnn3c2)=N1` [E 9] stands 159 to 160 °C; under `CC1(C)Cc2c(Cl)cccc2C(c2cnc3ccnn3c2)=N1` [E 10], 105 °C; under `Cc1cc2ncc(C3=NC(C)(C)C(C)(C)c4c(F)cccc43)cn2n1` [E 12], 180 to 190 °C.
To `Cc1nn2cc(C3=NC(C)(C)C(C)(C)c4c(F)cccc43)cnc2c1Br` [E 13] belongs 132 to 134 °C; to `CC1(C)N=C(c2cnc3c(Br)cnn3c2)c2cccc(F)c2C1(C)C` [E 14], 58 to 61 °C; to `Cc1cnn2cc(C3=NC(C)(C)C(C)(C)c4c(F)cccc43)cnc12` [E 15], 126 to 128 °C.
Under `CC1(C)N=C(c2cnc3c(C#N)cnn3c2)c2cccc(F)c2C1(C)C` [E 16] stands 179 to 182 °C; under `CC1(C)Cc2c(F)cccc2C(c2cnc3c(Br)cnn3c2)=N1` [E 17, 1-(3-bromopyrazolo[1,5-a]pyrimidin-6-yl)-5-fluoro-3,3-dimethyl-4H-isoquinoline], 121 to 123 °C.
Turning to `CC1(C)N=C(c2cnc3c(Br)cnn3c2)c2cccc(F)c2C1=O` [E 19, 1-(3-bromopyrazolo[1,5-a]pyrimidin-6-yl)-5-fluoro-3,3-dimethyl-isoquinolin-4-one], the melting point lay within 201 to 203 °C.
Turning to `CSc1nn2cc(C3=NC(C)(C)C(C)(C)c4c(F)cccc43)cnc2c1C#N` [E 20], the melting point was 112 to 114 °C.
Under `CC1(C)N=C(c2cnc3c(Br)cnn3c2)c2cccc(F)c2C1(F)F` [E 21, 1-(3-bromopyrazolo[1,5-a]pyrimidin-6-yl)-4,4,5-trifluoro-3,3-dimethyl-isoquinoline] stands 164 to 166 °C; under `Cc1cnn2cc(C3=NC(C)(C)C(F)(F)c4c(F)cccc43)cnc12` [E 22], 135 to 138 °C.
For the compound `Cc1nn2cc(C3=NC(C)(C)C(C)(C)c4c(F)cccc43)cnc2c1C#N` [E 23], the melting point fell in the range of 176 to 178 °C.
For `CC1(C)N=C(c2cnc3c(C#N)cnn3c2)c2cccc(F)c2C1(F)F` [E 24, 6-(4,4,5-trifluoro-3,3-dimethyl-1-isoquinolyl)pyrazolo[1,5-a]pyrimidine-3-carbonitrile], the melting point lay within 215 to 217 °C.
Under `Cc1nn2cc(C3=NC(C)(C)C(C)(C)c4c(F)cccc43)cnc2c1C` [E 25] stands 136 to 139 °C; under `CC1(C)N=C(c2cnc3c(F)cnn3c2)c2cccc(F)c2C1(C)C` [E 26], 198 to 200 °C.
To `CC1(C)N=C(c2cnc3nccn3c2)c2cccc(F)c2C1(C)C` [E 27] belongs 240 to 242 °C.
To `CC1(C)Cc2c(F)cccc2C(c2cnc3nccn3c2)=N1` [E 28] belongs 227 to 229 °C; to `Cc1cccc2c1CC(C)(C)N=C2c1cnc2nccn2c1` [E 30], 157 to 158 °C.
Consider `CC1(C)N=C(c2cnc3nc(Br)cn3c2)c2cccc(F)c2C1(C)C` [E 31], for which the melting point was 134 to 136 °C.
Under `CC1(C)N=C(c2cnc3c(Br)cc(Br)n3c2)c2cccc(F)c2C1(C)C` [E 39] stands 141 to 143 °C.

Source of the values: US9896454B2, “Microbiocidal heterobicyclic derivatives” (Syngenta Participations AG, priority 2014, dated 2018).
